In ChEMBL document CHEMBL1201862, “PubChem BioAssay data set” (2004):
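Protocol summary: plate cells (96-well), add compound at 5 concentrations, incubate 48 h, interpolate endpoints linearly. Abbreviation: GI50, concentration required for 50% inhibition of growth.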 Activity calls are given as the source filed them. Cut-off read from the data, not from the text of the source: active = GI50 up to about 1.1 µM and inactive = higher.

Key:
Assay in all cases: inhibition of tumour cell growth, NCI panel, 48 h
786-0 = tested on: 786-0
A498 = tested on: A498
A549 = tested on: A549
CCRF-CEM = tested on: CCRF-CEM
COLO 205 = tested on: COLO 205
DU-145 = tested on: DU-145
EKVX = tested on: EKVX
HOP-62 = tested on: HOP-62
HOP-92 = tested on: HOP-92
Hs-578T = tested on: Hs-578T
KM12 = tested on: KM12
LOX IMVI = tested on: LOX IMVI
MDA-MB-435 = tested on: MDA-MB-435
NCI-H226 = tested on: NCI-H226
OVCAR-4 = tested on: OVCAR-4
SF-268 = tested on: SF-268
SK-MEL-5 = tested on: SK-MEL-5
SW-620 = tested on: SW-620
TK-10 = tested on: TK-10
UO-31 = tested on: UO-31

Compound	GI50 (786-0)	GI50 (A498)	GI50 (A549)	GI50 (CCRF-CEM)	GI50 (COLO 205)	GI50 (DU-145)	GI50 (EKVX)	GI50 (HOP-62)	GI50 (HOP-92)	GI50 (Hs-578T)	GI50 (KM12)	GI50 (LOX IMVI)	GI50 (MDA-MB-435)	GI50 (NCI-H226)	GI50 (OVCAR-4)	GI50 (SF-268)	GI50 (SK-MEL-5)	GI50 (SW-620)	GI50 (TK-10)	GI50 (UO-31)
Cc1c2c(c(C)n1-c1ccccc1)C(=O)N(CCCCN1CCN(c3ccccc3)CC1)C2=O	4.97 µM (inactive)	26.1 µM (inactive)	14.5 µM (inactive)	7.21 µM (inactive)	6.62 µM (inactive)	19 µM (inactive)	10 µM (inactive)	7.73 µM (inactive)	8.17 µM (inactive)	20.2 µM (inactive)	19.5 µM (inactive)	10 µM (inactive)	8.05 µM (inactive)	9.68 µM (inactive)	13 µM (inactive)	37.8 µM (inactive)	3.7 µM (inactive)	18.9 µM (inactive)	30.2 µM (inactive)	4.17 µM (inactive)
COc1cc(/C=C\c2ccc(C)cc2)cc(OC)c1OC	0.00456 µM (active)	< 0.01 µM (active)	0.0048 µM (active)	0.00227 µM (active)	0.0101 µM (active)	0.0234 µM (active)	0.0721 µM (active)	0.0355 µM (active)	0.0652 µM (active)	0.0244 µM (active)	0.00531 µM (active)	0.00433 µM (active)	0.00264 µM (active)	0.0266 µM (active)	< 0.01 µM (active)	0.00505 µM (active)	0.00336 µM (active)	0.00192 µM (active)	0.0731 µM (active)	0.12 µM (active)
O=c1oc2ccccc2cc1P(=O)(O)O	> 100 µM (inactive)	> 100 µM (inactive)	> 100 µM (inactive)	> 100 µM (inactive)	> 100 µM (inactive)	> 100 µM (inactive)	> 100 µM (inactive)	> 100 µM (inactive)	> 100 µM (inactive)	> 100 µM (inactive)		> 100 µM (inactive)	> 100 µM (inactive)	> 100 µM (inactive)	> 100 µM (inactive)	> 100 µM (inactive)	> 100 µM (inactive)	> 100 µM (inactive)	> 100 µM (inactive)	
O=C(OC1OC2COC(=O)c3cc(O)c(O)c(O)c3-c3c(cc(O)c(O)c3O)C(=O)OC3C2OC(=O)[C@@]24CC(=O)[C@@](O)(OC25C(=O)O[C@H]2[C@@H](O)CO[C@@]25O)C2(O)Oc5c(O)c(O)cc(c5C24)C(=O)OC13)c1cc(O)c(O)c(O)c1 (stereo not given in full)	63.1 µM (inactive)	9.12 µM (inactive)	27.7 µM (inactive)	26.7 µM (inactive)	56.4 µM (inactive)	44.7 µM (inactive)	34.8 µM (inactive)	74.5 µM (inactive)	31.2 µM (inactive)	> 100 µM (inactive)	18.8 µM (inactive)	12.6 µM (inactive)	17.2 µM (inactive)	90.4 µM (inactive)	37.2 µM (inactive)	58.6 µM (inactive)	42.7 µM (inactive)	41.2 µM (inactive)		34.8 µM (inactive)
Nc1nc(Cl)cc(Nc2ccc3c(c2)CCC3)n1	52.2 µM (inactive)	> 100 µM (inactive)	> 100 µM (inactive)	44.3 µM (inactive)	44.9 µM (inactive)	> 100 µM (inactive)	32.1 µM (inactive)		> 100 µM (inactive)	> 100 µM (inactive)	36.1 µM (inactive)	56.5 µM (inactive)	> 100 µM (inactive)	> 100 µM (inactive)	> 100 µM (inactive)	> 100 µM (inactive)	91.4 µM (inactive)	85.1 µM (inactive)	65 µM (inactive)	> 100 µM (inactive)
CC#CCOC(=O)c1ccccc1OC(C)=O	> 100 µM (inactive)	> 100 µM (inactive)		> 100 µM (inactive)	> 100 µM (inactive)	> 100 µM (inactive)	> 100 µM (inactive)	> 100 µM (inactive)	> 100 µM (inactive)	> 100 µM (inactive)	> 100 µM (inactive)	> 100 µM (inactive)	> 100 µM (inactive)	> 100 µM (inactive)	> 100 µM (inactive)	> 100 µM (inactive)	> 100 µM (inactive)	> 100 µM (inactive)	> 100 µM (inactive)	> 100 µM (inactive)
CCN1CCc2sc3nc(S)n(C)c(=O)c3c2C1	> 100 µM (inactive)	> 100 µM (inactive)	> 100 µM (inactive)	< 0.01 µM (active)	> 100 µM (inactive)	> 100 µM (inactive)	> 100 µM (inactive)	> 100 µM (inactive)	> 100 µM (inactive)	> 100 µM (inactive)	> 100 µM (inactive)	> 100 µM (inactive)	> 100 µM (inactive)	> 100 µM (inactive)	> 100 µM (inactive)	> 100 µM (inactive)	> 100 µM (inactive)	> 100 µM (inactive)	> 100 µM (inactive)	> 100 µM (inactive)
